Results from US9180163B2, “Parstatin peptides” (priority 2009, dated 2015).
Ends that are not written are not given here. * marks the point of attachment. FITC = O=C1OC2(c3ccc(O)cc3Oc3cc(O)ccc32)c2ccc(NC(=S)*)cc21

Experiments:
[1] = system: HUVEC cells; assay: MTT cell proliferation assay; assay type: cell-based, human
Procedure: Cell proliferation was evaluated using a 3-(4,5-[…])-2,5-diphenyltetrazolium bromide (MTT, Sigma-Aldrich, St. Louis, Mo.) assay. Endothelial cells (10,000/well) were seeded in 24-well tissue culture plates and incubated with growth medium for 24 h. Cells were then treated with the vehicle or the indicated peptides in medium containing 5% FBS for 1 to 3 days. After 24, 48, or 72 hours, MTT solution (5 mg/ml) was added to each well and incubated for 3 h at 37° C. The blue formazan crystals were solubilized by addition of DMSO and absorbance at 450 nm was recorded using a 96-well plate reader.

[2] = system: Erk1/2 (p42/44 MAPK) in HUVEC cells; assay: Erk1/2 phosphorylation immunoblot (MAP kinase pathway); assay type: cell-based, human; details: pretreatment 1 h, 10 μM; stimulated by FBS, bFGF or VEGF
Procedure: The MAPK (Erk1/2, p42/44) cascade mediates mitogenesis. […] HUVEC cells were cultured in 35 mm tissue culture dishes. After reaching 80% confluency, cells were growth factor-starved and subsequently stimulated for 10 min with vehicle or indicated agents. In combination experiments, cells were pretreated with parstatin or other peptides for 10 to 60 min.
Attached cells were lysed with Laenmli sample buffer, resolved in 10% SDS-PAGE, and transferred to nitrocellulose membranes. Membranes were incubated with primary antibodies against phospho p42/44 mitogen-activated protein kinases (p-Erk1/2, New England Biolabs, UK) and p42/44 Erk1/2 (t-Erk1/2, New England Biolabs, UK). Membranes were then probed with secondary antibodies horseradish peroxidase-conjugated, and proteins were visualized by chemiluminescent detection.

[3] = system: HUVEC cells; assay: modified Boyden's chamber cell migration assay; assay type: cell-based, human; details: toward 5% FBS, 6 h; other peptides 10 μM
Procedure: HUVEC cell migration was assessed using a modified Boyden's chamber assay, i.e., in Transwell cell culture chambers (Corning Life Sciences, Acton, Mass.). Briefly, polycarbonate filters with 8 μm pores were used to separate the upper and the lower chambers. Cells were added to the upper compartment at a density of 10,000 cells/100 μl in serum-free medium containing 0.5% BSA and incubated for 6 h. Directional migration (chemotaxis) in the lower chamber was induced by addition of medium containing 5% FBS to the lower chamber. Where indicated parstatin or other peptides were added to lower chamber.
Cells on the filters were fixed and stained. The non-migrated cells (cells in upper surface) were removed by wiping with cotton swabs. The cells on the lower surface were counted manually under microscope in six predetermined fields. Parstatin (1-41) attenuated chemotactic cell migration through microporous membrane in response to serum (FIG. 3C). When human parstatin was combined with 5% FBS, the number of migrated cells was reduced in concentration-dependent manner.

[4] = system: HUVEC cells; assay: [3H]-thymidine incorporation (DNA synthesis); assay type: cell-based, human; details: serum, bFGF or VEGF; comparison peptides 10 μM
Procedure: The ability of parstatin (1-41) to inhibit DNA synthesis of endothelial cells was assessed in thymidine incorporation assays. HUVEC cells were grown until 60-80% confluent in 24-well plates. Cells were treated with indicated peptides in serum-free medium containing either 0.5% BSA, or VEGF, or bFGF, or medium containing 5% FBS, or epidermal growth factor (EGF), or heparin-binging EGF (HB-EGF) for 18 hours. All cells were pulsed with 0.5 μCi/ml [3H]-thymidine (ICN Biomedicals Inc., Irvine Calif.) for additional 6 h. Radioactivity incorporated into DNA was determined in liquid scintillation counter.

[5] = system: corneas of Sprague-Dawley rats; assay: corneal histopathology after chemical burn (vessels, neutrophils); assay type: in vivo, rat; details: 2×100 μg, day 7
Procedure: After the above-described processes were performed, the rats were sacrificed (7 days) and the eyes were excised. All eyes were sectioned (4 μm) and stained with hematoxylin-eosin. Two independent pathologists, in a blinded manner, evaluated the microvessel density and the inflammatory cell infiltration in each slide. Total corneal vascular vessels and neutrophils were counted at 200× in seven representative stained tissue sections for each eye, covering all cornea area and having a similar distance from the central burn.

[6] = system: caspase-3 in HUVEC cells; assay: caspase-3 activity colorimetric assay; assay type: cell-based, human; details: 0.5% BSA, 24 h; mouse and scrambled 10 μM
Procedure: To further support the involvement of caspases in parstatin (1-41) pro-apoptotic effect, its effect on caspase-3 activation was examined using a commercially available kit (Promega, Madison, Wis.). The colorimetric substrate, Ac-DEVD-p-nitroanilide, is cleaved by caspase-3 to release yellow p-nitroanilide, was measured by absorbance at 405 nm to detect caspase activation.
HUVEC cells were grown in 60 mm tissue culture plates until approximately 80% confluency. Cells were treated in absence or in presence of 0.5% BSA or bFGF for 24 h in serum-free medium. Suspended and adherent cells were collected and lysed. Caspase-3 activity was measured by absorbance at 405 nm.

[7] = system: HUVEC cells; assay: Fibrin gel in vitro angiogenesis assay; assay type: cell-based, human; details: VEGF/bFGF-induced, 24 h; other peptides 10 μM
Procedure: The ability of endothelial cells to form three-dimensional structures was analyzed using a Fibrin gel in vitro angiogenesis assay kit (Chemicon International Inc. Temecula, Calif.). Fibrin gels were formed in 48-well plates by mixing fibrinogen and thrombin solutions, according to manufacturer instructions. Cells (40,000 cells/well) were then added and cultured in medium containing 2% FBS for 18 h. After the addition of a second layer of fibrin gel, endothelial cells sandwiched within fibrin gels were cultured in serum-free medium containing 0.5% bovine serum albumin (BSA) and the combination of VEGF/bFGF for 24 h. Where indicated, parstatin (1-41) or other indicated peptides were added. Capillary-like network was photographed and measured.

[8] = system: chick chorioallontoic membrane (CAM); assay type: in vivo; details: 10 nmoles, 48 h
Procedure: The in vivo chick chorioallontoic membrane (CAM) angiogenesis model was used to evaluate the effect of parstatin (1-41) in angiogenesis. On incubation day 9 of fertilized chicken eggs, an O-ring (1 cm^2) was placed on the surface of the CAM and the vehicle or the indicated substances were placed inside this restricted area. After 48 h, CAMs were fixed in saline-buffered formalin, photographed, and analyzed using the Scion Image software (Scion Image Release Beta 4.0.2 software; Scion Corporation, Frederick, Md.). Image analysis was performed on at least 18 eggs for each group. Vessel number and length were evaluated by pixel counting, and the results expressed as mean percentage of control ±SE. Statistical analyses were performed using a Student's t test.

[9] = system: HUVEC cells; assay: Matrigel capillary tube-like formation; assay type: cell-based, human; details: 5% FBS, 18 h, parstatin (1-41) 0.3 to 10 μM, other peptides 10 μM
Procedure: Primary human umbilical vein endothelial cells (HUVEC cells) were obtained from freshly delivered umbilical cords from caesarean births and were grown in M199 medium with 20% fetal bovine serum (FBS) supplemented with endothelial cell growth supplement and heparin. One of the most specific tests for angiogenesis is the measurement of the ability of endothelial cells to form capillary-like structures (i.e., tube formation). Tube formation is a multi-step process involving cell adhesion, migration and differentiation. Tube formation can be enhanced by use of Matrigel or fibrin clots to coat plastic culture dishes and it is an accepted model of angiogenesis.
Matrigel™ (Becton Dickinson Labware, N.J., USA) is a mixture of basement membrane components extracted from the Englebreth-Holm-Swarm tumor. […] Matrigel™ (250 μl) was added to each well of a 24-well plate and allowed to polymerize. A suspension of 40,000 HUVEC cells in M199 medium containing 5% FBS was added into each well coated with Matrigel™.
Cells were treated with increasing concentrations of human parstatin (1-41), scrambled parstatin, or parstatin (24-41) fragment. After 18 hours of incubation, the medium was removed, and the cells were fixed and stained, and tube-like structures were quantitated.

[10] = system: HUVEC cells; assay: cellular uptake of FITC-labeled peptides by flow cytometry; assay type: cell-based, human; details: 30 min exposure
Procedure: HUVEC cells in the exponential growth phase were exposed to various concentrations of parstatin (1-41)-FITC in serum-free medium containing 0.5% BSA. After incubation times ranging from 1 min to 60 min, cells were washed extensively. Washed cells were incubated for 10 min with trypsin at 37° C. to remove the cell surface-bound parstatin. Suspended cells were subsequently centrifuged, washed, and analyzed on FACS flow cytometer (EPICS XL-MCL; Coulter).
The uptake of a given parstatin (1-41)-FITC into cells was assessed by the change of the FITC-positive cell population compared with untreated control cell samples.

[11] = system: HUVEC cells; assay: cellular uptake by fluorescence microscopy; assay type: cell-based, human; details: FITC-labeled peptide
Procedure: 4′,6-Diamidino-2-phenylindole (DAPI) was used to stain nuclei of all cells. Cell fluorescence was imaged on a Nikon Eclipse TE2000-U microscope. FITC and DAPI were excited using 490-nm and 360-nm filters, respectively. The emission signals were sorted out using 514 and 460 filters for the FITC and DAPI, respectively. HUVEC cells were treated with 10 μM of parstatin (1-41)-FITC for different time intervals. […] FITC signal was detected as early as 5 min of cell exposure to parstatin (1-41)-FITC (FIG. 9C).

Row | Substance | HUVEC cell proliferation ([1]; 10 μM) | activation of Erk1/2 [2] | chemotactic cell migration [3] | DNA synthesis in HUVEC cells [4] | mean number (density) of vascular vessels per section [5] | numbers of neutrophils [5] [cells/corneal section] | caspase-3 activity [6] | capillary-like network (total capillary tube length) in fibrin gels [7] | inhibition of the basal level of angiogenesis in CAMs [8] | tube formation on Matrigel [9] | fraction of FITC-positive cell population [10] | cell fluorescence in microscope images [11] | IC50 ([1]; stimulus not given, read-out: half-maximal concentration, inhibiting cell proliferation) [µM] | tube formation on Matrigel ([9]; listed as mouse parstatin (1-41))
1 | LRTNASLLVPFLTARAKSSGTREAADPPRLMCLRPLARRCG (Scrambled synthetic peptide) [scrambled parstatin, reference compound] | without effect | did not alter | without effect | did not cause any significant effect | 77.17±3.11 | 39±2.54 | without effect | did not affect | did not cause any significant effect | did not affect | – | – | – | –
2 | TRARRPESKATNATLDPRK-FITC (TRARRPESKATNATLDPRK(FITC); also: FITC linked to the C-terminal lysine; listed as Homo sapiens) [parstatin (24-41)-FITC, FITC conjugated to human parstatin (24-41) fragment] | – | – | – | – | – | – | – | – | – | – | minimal and comparable with that of control cells | no fluorescence was observed | – | –
3 | MGPRRLLIVALGLSLCGPLLSSRVPMSQPESERTDATVNPR [mouse parstatin, 1-41-amino acids cleaved N-terminal fragment of mouse PAR-1] | – | less pronounced effect | significant inhibitory effect, but to a lower extent | significant, but less effective inhibitory effect | – | – | moderate increase | less pronounced, but still significant, inhibitory effect | – | effective in inhibiting tube formation | – | – | 20 | less pronounced, but still significant, inhibitory effect
